Reference: paper PMC8445441, “Elucidating the mechanism by which synthetic helper peptides sensitize Pseudomonas aeruginosa to multiple antibiotics” (PLoS Pathogens, 2021)
Where “and” joins values, the source holds several entries; their conditions need not be identical. Equal entries are not always repeated. Where two headings read alike, the source gives them in different places. Positions of bridges follow the written chain, without caps; N, C: chain ends. Non-standard residues stand in square brackets, D forms with d. Residues, ends and D or L forms follow the SMILES beside them. *: point of attachment. Ileψ(thiazoline)Cys = CC[C@H](C)[C@H](N)C1=N[C@H](C(=O)*)CS1; dOrn = NCCC[C@@H](N)C(=O)O

Columns and labels:
P. aeruginosa PAO1 = experiment: microbe, parasite or virus in culture; settings: for MIC: Pseudomonas aeruginosa, PAO1, 18 h; for FICI / MICac: the MIC for the antibiotic in the combination / MICa: the MIC of antibiotics: S3 Table
Method: (§1) The MIC tests were performed in triplicate using broth microdilution in accordance with Clinical and Laboratory Standards Institute (CLSI) recommendations (http://iacld.ir/DL/public/CLSI-2018-M100-S28.pdf). Briefly, drugs were two-fold diluted in MHB and mixed with an equal volume of bacterial suspensions containing approximately 1 × 10^6 CFU/mL in 96-well microliter plate. After 18 h incubation at 37 °C, the MIC values were defined as the lowest concentrations of antibiotics with no visible growth of bacteria. […] Otherwise, 1/4 MIC of the peptide was used in the combination. […] If needed, membrane compounds PG, PE, PC, CL or LPS, or membrane stabilizers MgCl2 or CaCl2, or efflux pumps inhibitor PAβN were added to the broth medium to clarify the effect of other substances on the synergy between peptide and antibiotics. All the tests were performed in triplicate.
The fractional inhibitory concentration (FIC) indices were calculated using the previously described formula FICI = FICa + FICb = MICac/MICa + MICbc/MICb. The FICI was interpreted according to EUCAST [65] as follows: synergistic, FICI≤0.5; additive, 0.5<FICI≤1; indifferent, 1<FICI<2; antagonistic, FICI ≥2. For the FICI calculations, twice the highest concentration tested was used in the cases where the MIC was not reached.

[1] = test system: clinical P. aeruginosa isolates; experiment: microbe, parasite or virus in culture; settings: for MIC: Pseudomonas aeruginosa, 18 h; for Antibiotic sensibility (MIC) of clinical P. aeruginosa isolate AUMC-Pa-1: strain AUMC-Pa-1; for Antibiotic sensibility (MIC) of clinical P. aeruginosa isolate AUMC-Pa-2: strain AUMC-Pa-2; for Antibiotic sensibility (MIC) of clinical P. aeruginosa isolate AUMC-Pa-3: strain AUMC-Pa-3; for Antibiotic sensibility (MIC) of clinical P. aeruginosa isolate AUMC-Pa-4: strain AUMC-Pa-4; for Antibiotic sensibility (MIC) of clinical P. aeruginosa isolate AUMC-Pa-5: strain AUMC-Pa-5; for Antibiotic sensibility (MIC) of clinical P. aeruginosa isolate AUMC-Pa-6: strain AUMC-Pa-6; for Antibiotic sensibility (MIC) of clinical P. aeruginosa isolate HM-214: strain HM-214; for Antibiotic sensibility (MIC) of clinical P. aeruginosa isolate NR-31040: strain NR-31040; for Antibiotic sensibility (MIC) of clinical P. aeruginosa isolate NR-31041: strain NR-31041
Method: The bacterial strains, primers and plasmids used in this study are listed in S5 Table. […] Bacteria were cultured in LB medium or cation-adjusted Muller-Hinton broth (CA-MHB) at 37 °C with agitation at 220 rpm. All the antibiotics and chemical compounds used in this study were purchased from Sigma-Aldrich.
as §1

[2] = read-out: Antibiotic sensibility (MIC) of clinical P. aeruginosa isolate AUMC-Pa-1, strain AUMC-Pa-1, antibiotic alone
[3] = read-out: Antibiotic sensibility (MIC) of clinical P. aeruginosa isolate AUMC-Pa-2, strain AUMC-Pa-2, antibiotic alone
[4] = read-out: Antibiotic sensibility (MIC) of clinical P. aeruginosa isolate AUMC-Pa-3, strain AUMC-Pa-3, antibiotic alone
[5] = read-out: Antibiotic sensibility (MIC) of clinical P. aeruginosa isolate AUMC-Pa-4, strain AUMC-Pa-4, antibiotic alone
[6] = read-out: Antibiotic sensibility (MIC) of clinical P. aeruginosa isolate AUMC-Pa-5, strain AUMC-Pa-5, antibiotic alone
[7] = read-out: Antibiotic sensibility (MIC) of clinical P. aeruginosa isolate AUMC-Pa-6, strain AUMC-Pa-6, antibiotic alone
[8] = read-out: Antibiotic sensibility (MIC) of clinical P. aeruginosa isolate HM-214, strain HM-214, antibiotic alone
[9] = read-out: Antibiotic sensibility (MIC) of clinical P. aeruginosa isolate NR-31040, strain NR-31040, antibiotic alone
[10] = read-out: Antibiotic sensibility (MIC) of clinical P. aeruginosa isolate NR-31041, strain NR-31041, antibiotic alone
[11] = read-out: MICa: the MIC of antibiotics, S3 Table, antibiotic alone, PAO1

Compound | FICI (P. aeruginosa PAO1; PAO1, antibiotic + 2 μM D-11) | FICI (P. aeruginosa PAO1; PAO1, antibiotic + 4 μM D-11) | MICac: the MIC for the antibiotic in the combination (P. aeruginosa PAO1; PAO1, with 2 μM D-11) | MICac: the MIC for the antibiotic in the combination (P. aeruginosa PAO1; PAO1, with 4 μM D-11) | MICa: the MIC of antibiotics (P. aeruginosa PAO1; antibiotic alone, PAO1) | MIC [1, 2] [µM] | MIC [1, 3] [µM] | MIC [1, 4] [µM] | MIC [1, 5] [µM] | MIC [1, 6] [µM] | MIC [1, 7] [µM] | MIC [1, 8] [µM] | MIC [1, 9] [µM] | MIC [1, 10] [µM] | Antibiotic sensibility (MIC) of clinical P. aeruginosa isolate AUMC-Pa-1 ([1]; antibiotic alone) [µM] | Antibiotic sensibility (MIC) of clinical P. aeruginosa isolate AUMC-Pa-2 ([1]; antibiotic alone) [µM] | Antibiotic sensibility (MIC) of clinical P. aeruginosa isolate AUMC-Pa-3 ([1]; antibiotic alone) [µM] | Antibiotic sensibility (MIC) of clinical P. aeruginosa isolate AUMC-Pa-4 ([1]; antibiotic alone) [µM] | Antibiotic sensibility (MIC) of clinical P. aeruginosa isolate AUMC-Pa-5 ([1]; antibiotic alone) [µM] | Antibiotic sensibility (MIC) of clinical P. aeruginosa isolate AUMC-Pa-6 ([1]; antibiotic alone) [µM] | also measured
CCCCc1ccc(C(=O)O)nc1 [Fusaric Acid] | 1.063 | 1.125 | >128/>128 μM | >128/>128 μM |  |  |  |  |  |  |  |  |  |  |  |  |  |  |  |  | MIC (P. aeruginosa PAO1; read-out: MICa: the MIC of antibiotics): > 128 µM; MIC ([1]; read-out: Antibiotic sensibility (MIC) of clinical P. aeruginosa isolate AUMC-Pa-1): > 128 µM; MIC ([1]; read-out: Antibiotic sensibility (MIC) of clinical P. aeruginosa isolate AUMC-Pa-2): > 128 µM; MIC ([1]; read-out: Antibiotic sensibility (MIC) of clinical P. aeruginosa isolate AUMC-Pa-3): > 128 µM; MIC ([1]; read-out: Antibiotic sensibility (MIC) of clinical P. aeruginosa isolate AUMC-Pa-4): > 128 µM; MIC ([1]; read-out: Antibiotic sensibility (MIC) of clinical P. aeruginosa isolate AUMC-Pa-5): > 128 µM; MIC ([1]; read-out: Antibiotic sensibility (MIC) of clinical P. aeruginosa isolate AUMC-Pa-6): > 128 µM; MIC ([1]; read-out: Antibiotic sensibility (MIC) of clinical P. aeruginosa isolate HM-214): > 128 µM; MIC ([1]; read-out: Antibiotic sensibility (MIC) of clinical P. aeruginosa isolate NR-31040): > 128 µM; MIC ([1]; read-out: Antibiotic sensibility (MIC) of clinical P. aeruginosa isolate NR-31041): > 128 µM
CNC(C)C1CCC(N)C(OC2C(N)CC(N)C(OC3OCC(C)(O)C(NC)C3O)C2O)O1 (centres unmarked) [Gentamicin] | 2.063 | 2.125 | 2 µM | 2 µM | 1 µM | 0.5 | 0.25 | 0.0625 | 0.5 | 0.5 | 2 | 1 | 32 | 32 |  |  |  |  |  |  | 
Neomycin |  | 2.125 | 2/2 μM | 4 µM | 2/2 μM and 2 μM |  |  |  |  |  |  |  |  |  | 1 | 0.5 | 0.0625 | 0.5 | 0.5 | 2 | Antibiotic sensibility (MIC) of clinical P. aeruginosa isolate HM-214 ([1]; antibiotic alone): 2 µM; Antibiotic sensibility (MIC) of clinical P. aeruginosa isolate NR-31040 ([1]; antibiotic alone): 8 µM; Antibiotic sensibility (MIC) of clinical P. aeruginosa isolate NR-31041 ([1]; antibiotic alone): 4 µM
CO/N=C(\C(=O)N[C@@H]1C(=O)N2C(C(=O)[O-])=C(C[N+]3(C)CCCC3)CS[C@H]12)c1csc(N)n1 [Cefepime] | 0.563 | 0.625 | 1 µM | 1 µM | 2 µM | 8 | 0.5 | 2 | 2 | 4 | 4 | 128 | 4 | 16 |  |  |  |  |  |  | 
CC1(C)S[C@@H]2[C@H](NC(=O)[C@H](N)c3ccc(O)cc3)C(=O)N2[C@H]1C(=O)O [Amoxicin, Amoxicillin] |  | 1.125 | >128/>128 μM | >128/>128 μM |  | > 128 | > 128 | > 128 | > 128 | > 128 | > 128 | > 128 | > 128 | > 128 |  |  |  |  |  |  | MIC (P. aeruginosa PAO1; [11]): > 128 µM
[H]/N=C(/N)N[C@H]1[C@H](O)[C@@H](O)[C@H](O[C@@H]2O[C@@H](C)[C@](O)(C=O)[C@H]2O[C@@H]2O[C@@H](CO)[C@H](O)[C@@H](O)[C@@H]2NC)[C@@H](N/C(N)=N\[H])[C@@H]1O [Streptomycin] | 1.063 | 1.125 | 64/64 μM | 64/64 μM | 64/64 μM | 16 | 8 | 128 | 8 | 8 | 16 | 128 | > 128 | > 128 |  |  |  |  |  |  | 
NC[C@H]1O[C@H](O[C@H]2[C@H](O)[C@@H](O[C@H]3O[C@H](CO)[C@@H](O)[C@H](N)[C@H]3O)[C@H](N)C[C@@H]2N)[C@H](O)[C@@H](O)[C@@H]1O [Kanamycin] | 2.063 | 2.125 | 128 µM | 128 µM | 64 µM |  |  |  |  |  |  |  |  |  | 64 | 16 | 32 | 32 | 32 | 32 | Antibiotic sensibility (MIC) of clinical P. aeruginosa isolate HM-214 ([1]; antibiotic alone): 128 µM; Antibiotic sensibility (MIC) of clinical P. aeruginosa isolate NR-31040 ([1]; antibiotic alone): 128 µM; Antibiotic sensibility (MIC) of clinical P. aeruginosa isolate NR-31041 ([1]; antibiotic alone): 128 µM
CC[C@H](C)[C@H](N)C1=N[C@H](C(=O)N[C@@H](CC(C)C)C(=O)N[C@H](CCC(=O)O)C(=O)N[C@H](C(=O)N[C@H]2CCCCNC(=O)[C@H](CC(N)=O)NC(=O)[C@@H](CC(=O)O)NC(=O)[C@H](Cc3cnc[nH]3)NC(=O)[C@@H](Cc3ccccc3)NC(=O)[C@H]([C@@H](C)CC)NC(=O)[C@@H](CCCN)NC2=O)[C@@H](C)CC)CS1 [Bacitracin] ({Ileψ(thiazoline)Cys}-L[dE]IK[dOrn]I[dF]H[dD]N; lactam 4-C (inferred); N-terminus assumed) | 1.063 | 1.125 | >128/>128 μM | >128/>128 μM | >128/>128 μM |  |  |  |  |  |  |  |  |  | >128 | >128 | >128 | >128 | >128 | >128 | Antibiotic sensibility (MIC) of clinical P. aeruginosa isolate HM-214 ([1]; antibiotic alone): >128 µM; Antibiotic sensibility (MIC) of clinical P. aeruginosa isolate NR-31040 ([1]; antibiotic alone): >128 µM; Antibiotic sensibility (MIC) of clinical P. aeruginosa isolate NR-31041 ([1]; antibiotic alone): >128 µM
CC1(C)S[C@@H]2[C@H](NC(=O)[C@H](N)c3ccccc3)C(=O)N2[C@H]1C(=O)O [Ampicillin] |  | 1.125 | >128/>128 μM | >128/>128 μM |  | > 128 | > 128 | > 128 | > 128 | > 128 | > 128 | > 128 | > 128 | > 128 |  |  |  |  |  |  | MIC (P. aeruginosa PAO1; [11]): > 128 µM
NCC[C@H](O)C(=O)N[C@@H]1C[C@H](N)[C@@H](O[C@H]2O[C@H](CN)[C@@H](O)[C@H](O)[C@H]2O)[C@H](O)[C@H]1O[C@H]1O[C@H](CO)[C@@H](O)[C@H](N)[C@H]1O [Amikacin] | 1.063 | 2.125 | 1/1 μM | 2 µM | 1/1 μM and 1 μM | 1 | 0.25 | 0.0625 | 1 | 1 | 2 | 1 | 4 | 2 |  |  |  |  |  |  | 
